Columns and labels:
[1] = biological target: T1, PPAR-α (Peroxisome Proliferator Activated Receptor-alpha) (Homo sapiens, UniProt Q07869); assay: Activation of PPAR-α, luciferase reporter in CV-1 cells; assay type: cell-based; settings: 24 hours, negative control and non-treated group = 1.0
T1 construct: expressed in transfected cells; host or cells: CV-1 monkey kidney epithelial cells (ATCC CCL 70)
T1 sequence (Q07869 1-468): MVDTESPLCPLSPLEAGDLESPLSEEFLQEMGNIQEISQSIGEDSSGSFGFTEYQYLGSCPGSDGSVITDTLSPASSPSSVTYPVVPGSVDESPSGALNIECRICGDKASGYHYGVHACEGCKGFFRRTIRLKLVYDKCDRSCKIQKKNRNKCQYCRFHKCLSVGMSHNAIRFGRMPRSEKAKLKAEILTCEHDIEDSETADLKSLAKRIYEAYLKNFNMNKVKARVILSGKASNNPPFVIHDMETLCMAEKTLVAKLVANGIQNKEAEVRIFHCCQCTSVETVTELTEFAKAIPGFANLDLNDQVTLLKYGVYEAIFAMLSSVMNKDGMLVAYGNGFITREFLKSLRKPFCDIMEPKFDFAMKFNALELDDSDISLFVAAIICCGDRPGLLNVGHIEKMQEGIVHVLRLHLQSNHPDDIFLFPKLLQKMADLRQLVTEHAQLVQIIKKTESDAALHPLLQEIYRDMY
Description: Monkey kidney epithelial cell line CV-1 (ATCC CCL 70) was subcultured in a DMEM medium containing 10% fetal bovine serum treated with charcol/dextran, which was a phenol red-free medium to remove the effect by estrogen of phenol red.
CV-1 cells were distributed in a 24-well plate type incubator at a concentration of 5×10^4. After 24 hours cultivation, the 3 different plasmids were transient transfected. After 24 hours cultivation, the plate was washed with 1×PBS (Phosphate Buffered Saline) and treated with ligand candidates at various concentrations. After 24 hours cultivation, the plate was washed with 1×PBS and the cells were lyzed with 1×PLB (Passive Lysis Buffer) and measured for luciferase activity using Dual-Luciferase® Reporter Assay System kit.

MMP-2 = assay: Inhibition of MMP-2 biosynthesis after UV irradiation (gelatin zymography); assay type: cell-based; settings: human keratinocytes, UV-B 30 mJ/cm^2, 10 ppm test substance, 2 days; UV control = 100
Description: (§1) After 24 hours, the plate was irradiated by UV-B at 30 mJ/cm^2. The media were exchanged with new medium containing 10 ppm of each test substance. After 2 days of cultivation, each supernatant was harvested and subjected to the zymography using gelatine gel to obtain produced MMP-2 and MMP-9, quantities of which were then measured by a densitometer.

type IV collagen = assay: Biosynthesis of type IV collagen in keratinocytes (Dot Blot); assay type: cell-based; settings: human keratinocytes, 10 ppm, 24 hours; control = 100
Description: The media were exchanged with new medium containing 10 ppm of each test substance. After 24 hours of cultivation, each supernatant was harvested and subjected to the Dot Blot method to measure the amount of produced type IV collagen.

[2] = tested on: Tumor Necrosis Factor alpha (TNF-α); assay: Inhibition of TNF-α biosynthesis after UV irradiation (ELISA); assay type: cell-based; settings: human keratinocytes, UV-B 30 mJ/cm^2, 10 μM (10 ppm of extract), 6 to 24 hours; UV control = 100
Description: Human keratinocytes were cultured in a 12-well plate type incubator at a concentration of 10^4. The plate was irradiated by UV-B at 30 mJ/cm^2. The media were exchanged with new medium containing 10 μM of each test substance (10 ppm of extract). After 6 to 24 hours of cultivation, the cells were harvested and subjected to ELISA (Pharmingen 555212) to determine the amount of produced tumor necrosis factor α (TNF-α). As the positive control, Wy-14,643 was used.

type VII collagen = assay: Biosynthesis of type VII collagen in fibroblasts (Dot Blot); assay type: cell-based; settings: human fibroblasts, 10 ppm, 24 hours; control = 100
Description: The media were exchanged with new medium containing 10 ppm of each test substance. After 24 hours of cultivation, each supernatant was harvested and subjected to the Dot Blot method to measure the amount of produced type VII collagen.

laminin 10/11 = assay: Biosynthesis of laminin 10/11 in keratinocytes (Western Blot); assay type: cell-based; settings: human keratinocytes, 10 ppm, 24 hours; control = 100
Description: Human keratinocytes were cultured in a 24-well plate type incubator at a concentration of 5×10^4. The media were exchanged with new medium containing 10 ppm of each test substance. After 24 hours of cultivation, each supernatant was harvested and subjected to the Western Blot method to measure the amount of produced laminin 10/11.

MMP-9 = assay: Inhibition of MMP-9 biosynthesis after UV irradiation (gelatin zymography); assay type: cell-based; settings: human keratinocytes, UV-B 30 mJ/cm^2, 10 ppm test substance, 2 days; UV control = 100
Description: as §1

[3] = tested on: Type I Collagenase (MMP-1); assay: Inhibition of type I collagenase (MMP-1) biosynthesis after UV-A irradiation, test substances (ELISA); assay type: cell-based; settings: new born human fibroblasts, UV-A 15 J/cm^2, 10 μM or 10 ppm, UV negative control = 100; for Type I collagenase biosynthesis (%), UV-A + TNF-α treated group: plus TNF-α 10 ng/ml
Description: To describe the experiment method in detail, human fibroblasts isolated from the skin of a new born baby were cultured in a 48-well plate type incubator at a concentration of 10^4. After 24 hours, the plate was irradiated by UV-A at 15 J/cm^2. […] At the second day of cultivation, the supernatants were harvested and subjected to ELISA (AP biotech RPN2610) to determine the amount of produced type I collagenase. As the positive control, Wy-14,643 and retinoic acid (RA) were used.

pro-collagen = assay: Biosynthesis of collagen (pro-collagen ELISA) in fibroblasts; assay type: cell-based, Human; settings: 48 hours, un-treated control = 100
Description: Human fibroblasts were cultured in a 48-well plate type incubator at a concentration of 10^4. The media were exchanged with new medium (theanine: 1, 10, 100 um) containing each test substance of Table 7 at a concentration of 0.001 μM, 0.01 μM, 0.1 μM, 0.5 μM and 2 μM. After 48 hours of cultivation, each supernatant was harvested and subjected to ELISA (Takara MK101) to measure the amount of produced pro-collagen.
Also, in order to examine the synergic effect of theanine on collagen biosynthesis, theanine 10 μM was added to catechin at different 4 concentrations and the result is shown in Table 8.

[4] = tested on: Type I Collagenase (MMP-1); assay: Type I collagenase (MMP-1) biosynthesis with UV-A, TNF-α and antibody against TNF-α (ELISA); assay type: cell-based, Human
Description: Human fibroblasts isolated from the skin of new born baby were cultured in a 48-well plate type incubator at a concentration of 10^4. after 24 hours, the plate was irradiated by UV-A at 15 J/cm^2 and antibody against tumor necrosis factor alpha was added thereto in a concentration of 1 ug/ml. At the second day of cultivation, the supernatants were harvested and subjected to ELISA (AP biotech RPN2610) to determine the amount of produced type I collagenase. The result is shown in Table 15 as comparative values, referred to 100 of control which was not treated.

Compound	PPAR-α activity ([1]; 10 μM)	PPAR-α activity ([1]; 100 μM)	MMP-2 (%) (MMP-2)	Type IV collagen biosynthesis (%) (type IV collagen)	TNF-α biosynthesis (%) [2]	type VII collagen biosynthesis (%) (type VII collagen)	laminin 10/11 biosynthesis (%) (laminin 10/11)	MMP-9 (%) (MMP-9)	Type I collagenase biosynthesis (%), UV-A + TNF-α treated group [3]	Type I collagenase biosynthesis (%), UV-A irradiated group [3]	Collagen biosynthesis (pro-collagen; 0.001 μM)	Collagen biosynthesis (pro-collagen; 0.01 μM)	Collagen biosynthesis (pro-collagen; 0.1 μM)	Collagen biosynthesis (pro-collagen; 0.5 μM)	Collagen biosynthesis (pro-collagen; 2 μM)	type I collagenase, UV-A irradiated group, column headed TNF-α treated group ([4]; UV-A 15 J/cm^2, antibody against TNF-α 1 ug/ml, untreated control = 100 (UV-A without antibody 210))	type I collagenase, TNF-α treated group, No-Antibody treated group ([4]; new born human fibroblasts, untreated control = 100)
O=C(O[C@@H]1Cc2c(O)cc(O)cc2O[C@H]1c1ccc(O)c(O)c1)c1cc(O)c(O)c(O)c1 [CG, catechin gallate]	1.2	1.6	53%	134%	37%	124%	129%	55%	89%	53%	104.3	118.5	124.9	118.9	80.3	–	–
O=C(O[C@@H]1Cc2c(O)cc(O)cc2O[C@@H]1c1cc(O)c(O)c(O)c1)c1cc(O)c(O)c(O)c1 [EGCG, epigallocatechin gallate]	1.0	1.5	52%	138%	35%	127%	137%	56%	88%	42%	101.4	154.6	133.8	155.8	78.4	–	–
O=C(O[C@@H]1Cc2c(O)cc(O)cc2O[C@H]1c1cc(O)c(O)c(O)c1)c1cc(O)c(O)c(O)c1 [GCG, gallocatechin gallate]	–	2.3	53%	135%	27%	121%	131%	56%	86%	43%	98.9	138.3	147.0	157.1	75.2	–	–
O=c1c(O)c(-c2cc(O)c(O)c(O)c2)oc2cc(O)cc(O)c12 [Myricetin, myricetin]	1.7	1.6	51%	139%	36%	125%	132%	55%	97%	52%	–	–	–	–	–	–	–
TNF-α	–	–	–	–	–	–	–	–	–	–	–	–	–	–	–	134	250

— patent publication US10092493B2, “Composition of skin external application for anti-aging” (AMOREPACIFIC CORPORATION, priority 2005, dated 2018)
